Measured values published in PMC8699473, “An Easily Expandable Multi-Drug LC-MS Assay for the Simultaneous Quantification of 57 Oral Antitumor Drugs in Human Plasma” (Cancers, 2021).
Several values for one entry are separate records, joined by “and”; a condition that tells them apart may be missing. Identical values can stand only once.

Legend:
[1] = Freeze-thaw stability in spiked pooled human plasma; type: physicochemical
[2] = Short-term stability in spiked pooled human plasma (bench-top, 4 °C, 56 °C)
[3] = Plasma concentrations in patients on oral antitumor therapy (LC-MS); type: in vivo, human; conditions: for Measured plasma concentration: 24 h
Text: The liquid chromatography-mass spectrometer system consisted of a Thermo Scientific Dionex UltiMate^TM 3000 with an integrated and temperature controlled autosampler (Thermo Fisher Scientific, Dreieich, Germany). An Acquity UPLC® BEH C18 column (2.1 × 100 mm, 1.7 µm; Waters, Milford, CT, USA) equipped with an Acquity UPLC® BEH C18 VanGuard^TM Pre-Column (2.1 × 5 mm, 1.7 µm; Waters, Milford, CT, USA) was used for chromatographic separation. The Q-Exactive^TM Focus mass spectrometer (MS) was hyphenated with a heated electrospray ionization (HESI) source (both from Thermo Fisher Scientific, Dreieich, Germany).
Chromatographic separation was achieved using a gradient elution with water containing 0.5% (v/v) FA (eluent A) and MeOH with 0.1% (v/v) FA (eluent B). The injection volume was 5 µL. The gradient program is shown in Supplement Table S2. The flow rate was 0.5 mL/min with a total run time of 15 min. The column heater was maintained at 50 °C and the autosampler temperature was 4 °C.
The following MS and HESI settings were maintained for all analyses: Sheath gas, auxiliary gas, and sweep gas flow rates were set to 60, 20, and 0, respectively. The spray voltage was 4000 V. Both capillary and auxiliary gas heater temperatures were set to 400 °C. High-purity nitrogen gas was used for the HESI source gases and for the bath gas of the C-trap. […] The HESI source was configured in positive mode for ionization.
The stock solutions were stored in glass vials at −80 °C. Aliquots of all stock solutions were combined in ACN (volumes of individual stock solution solvents are negligible) to obtain a standard solution of all analytes with an individual concentration of 200% of the respective trough level (cmin). Eight individual working standards were prepared by stepwise dilution of this standard solution with concentrations from 10 to 200% cmin (shown in Supplement Table S3). Furthermore, the four individual IS stock solutions were combined and diluted to 50 ng/mL with ACN. Calibration and validation standards were prepared by spiking 50 µL pooled human plasma with 10 µL of the respective working solution. Next, 250 µL IS solution (50 ng/mL in ACN) were added and vortexed vigorously. […] Then, 100 µL supernatant were transferred to 300 µL HPLC insert glass vials and diluted with 100 µL eluent (90% A/10% B). For blank samples, 50 µL pooled human plasma were combined with 10 µL ACN (instead of working solution) and prepared as described above. The calibration and validation standards were freshly prepared before every run. Patient plasma samples were prepared as calibration and validation standards (no additional processing step necessary), except for adding 10 µL ACN instead of 10 µL working standard. Before sample preparation, the frozen plasma samples were thawed in absence of light at 4 °C.
Blood samples were collected over the entire dosing interval from patients treated with an oral anticancer drug as listed in Supplement Table S4. […] A maximum of two samples at two different time points throughout the entire dosing interval were collected per patient. Treatment duration before collection was at least five half-lives (depending on the specific oral anticancer drug). The samples were collected in K3-EDTA tubes.
A total of 71 blood samples from 39 patients treated with 14 different oral anticancer drugs were collected (see Supplement Table S4 for details). All patients were recruited from independent outpatient clinics associated with the Comprehensive Cancer Center of the University Hospital Erlangen (CCC Erlangen-EMN). Of 71 blood samples, 41 were taken ±4 h of trough level (cmin).

[4] = Autosampler stability of ready for injection samples; type: physicochemical, human
[5] = Long-term stability in spiked pooled human plasma
[6] = design: method as in supplement references [1-55] as printed per drug; conditions: minimum steady-state blood plasma concentration after multiple dose administration; ref supplement references [1-55] per drug; cited from earlier work

## COc1cc2nccc(Oc3ccc(NC(=O)C4(C(=O)Nc5ccc(F)cc5)CC4)cc3)c2cc1OC [Cabozantinib]
[1]; validation standard 2xLLOV
  Freeze-Thaw Accuracy [%]: 99.6%
[1]; validation standard LLOV
  Freeze-Thaw Accuracy [%]: 90.2%
[1]; validation standard MOV
  Freeze-Thaw Accuracy [%]: 102.2%
[1]; validation standard ULOV
  Freeze-Thaw Accuracy [%]: 95.0%
[2]; validation standard 2xLLOV
  Short-time stability (1h, 56°C) Accuracy [%]: 49.1%
  Short-time stability (24h, 4°C, without daylight) Accuracy [%]: 101.8%
  Short-time stability (24h, RT, with daylight) Accuracy [%]: 103.6%
[2]; validation standard LLOV
  Short-time stability (1h, 56°C) Accuracy [%]: 30.2%
  Short-time stability (24h, 4°C, without daylight) Accuracy [%]: 98.5%
  Short-time stability (24h, RT, with daylight) Accuracy [%]: 91.8%
[2]; validation standard MOV
  Short-time stability (1h, 56°C) Accuracy [%]: 51.8%
  Short-time stability (24h, 4°C, without daylight) Accuracy [%]: 102.2%
  Short-time stability (24h, RT, with daylight) Accuracy [%]: 104.9%
[2]; validation standard ULOV
  Short-time stability (1h, 56°C) Accuracy [%]: 44.1%
  Short-time stability (24h, 4°C, without daylight) Accuracy [%]: 96.1%
[3]; 20 mg/day, ±4 h of trough level: yes
  Measured plasma concentration: 289.4 ng/mL and 291.0 ng/mL and 551.4 ng/mL
[3]; 40 mg/day, ±4 h of trough level: yes
  Measured plasma concentration: 253.5 ng/mL
[3]; 60 mg/day, ±4 h of trough level: no
  Measured plasma concentration: 1225.4 ng/mL and 700.9 ng/mL and 627.0 ng/mL
[3]; 40/60 mg/day, ±4 h of trough level: yes
  Measured plasma concentration: 445.6 ng/mL and 562.2 ng/mL
[3]; patient plasma concentrations
  Interpatient Coefficient of Variation [%]: 58.5%
[3]; patient plasma, all samples, r.c. = respective cmin
  Median Concentration of All Samples [% of r.c.]: 153.3 % of r.c.
[4]; validation standard 2xLLOV
  Autosampler (72h, 4°C) Accuracy [%]: 103.4%
[4]; validation standard LLOV
  Autosampler (24h, 4°C) Accuracy [%]: 92.0%
  Autosampler (72h, 4°C) Accuracy [%]: 94.0%
[4]; validation standard MOV
  Autosampler (24h, 4°C) Accuracy [%]: 105.6%
  Autosampler (72h, 4°C) Accuracy [%]: 103.5%
[4]; validation standard ULOV
  Autosampler (24h, 4°C) Accuracy [%]: 98.7%
[5]; validation standard 2xLLOV
  Long-term stability, 1 month, -20°C Accuracy [%]: 98.4%
  Long-term stability, 1 month, -80°C Accuracy [%]: 92.5%
  Long-term stability, 2 month, -80°C Accuracy [%]: 100.3%
  Long-term stability, 3 month, -20°C Accuracy [%]: 92.5%
  Long-term stability, 3 month, -80°C Accuracy [%]: 94.6%
  Long-term stability, 6 weeks, 4°C, without daylight Accuracy [%]: 96.8%
[5]; validation standard LLOV
  Long-term stability, 1 month, -20°C Accuracy [%]: 91.9%
  Long-term stability, 1 month, -80°C Accuracy [%]: 89.4%
  Long-term stability, 2 month, -20°C Accuracy [%]: 97.7%
  Long-term stability, 2 month, -80°C Accuracy [%]: 100.2%
  Long-term stability, 3 month, -20°C Accuracy [%]: 90.4%
  Long-term stability, 3 month, -80°C Accuracy [%]: 91.8%
  Long-term stability, 6 weeks, 4°C, without daylight Accuracy [%]: 94.1%
[5]; validation standard MOV
  Long-term stability, 1 month, -20°C Accuracy [%]: 97.7%
  Long-term stability, 1 month, -80°C Accuracy [%]: 97.3%
  Long-term stability, 2 month, -20°C Accuracy [%]: 101.6%
  Long-term stability, 2 month, -80°C Accuracy [%]: 102.9%
  Long-term stability, 3 month, -20°C Accuracy [%]: 100.0%
  Long-term stability, 3 month, -80°C Accuracy [%]: 98.9%
  Long-term stability, 6 weeks, 4°C, without daylight Accuracy [%]: 108.5%
[5]; validation standard ULOV
  Long-term stability, 1 month, -20°C Accuracy [%]: 95.7%
  Long-term stability, 1 month, -80°C Accuracy [%]: 93.1%
  Long-term stability, 2 month, -20°C Accuracy [%]: 99.6%
  Long-term stability, 2 month, -80°C Accuracy [%]: 100.3%
  Long-term stability, 3 month, -20°C Accuracy [%]: 96.3%
  Long-term stability, 3 month, -80°C Accuracy [%]: 93.1%
  Long-term stability, 6 weeks, 4°C, without daylight Accuracy [%]: 101.8%
[6]
  cmin: 1380 ng/mL
